Test results from PMC2772868 (Biochemistry, 2009).

B1: 40-bp natural lac operator (dsDNA)
DNA 1: TGTTGTGTGGAATTGTGAGCGGATAACAATTTCACACAGG
DNA 2: CCTGTGTGAAATTGTTATCCGCTCACAATTCCACACAACA

Experiments:
[1] = target: LacI (lactose repressor protein) (Escherichia coli, UniProt P03023); type: binding
LacI wild-type = LacI wild-type (Escherichia coli, UniProt P03023 1-360); experiment: filter binding
LacI wild-type, sequence (P03023 whole entry): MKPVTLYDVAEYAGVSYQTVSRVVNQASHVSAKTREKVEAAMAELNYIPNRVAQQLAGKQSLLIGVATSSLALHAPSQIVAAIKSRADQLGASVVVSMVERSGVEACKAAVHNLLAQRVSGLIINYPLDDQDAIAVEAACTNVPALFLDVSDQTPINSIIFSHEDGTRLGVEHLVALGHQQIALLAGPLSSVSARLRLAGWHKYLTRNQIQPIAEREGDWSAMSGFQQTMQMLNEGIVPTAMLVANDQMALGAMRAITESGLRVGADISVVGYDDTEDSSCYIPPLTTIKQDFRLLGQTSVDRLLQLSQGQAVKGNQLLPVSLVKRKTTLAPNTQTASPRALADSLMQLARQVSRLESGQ

LacI (lactose repressor protein), sequence (P03023 whole entry): as above

Molecule | EC50 [1] [µM] | Kd (LacI wild-type) [pM]
CC(C)S[C@@H]1O[C@H](CO)[C@H](O)[C@H](O)[C@H]1O [IPTG, isopropyl-β-D-thiogalactoside] | 2.2 | 
B1 |  | 22 ± 2
